Results: paper PMC7462494, “Novel Bi-heterocycles as Potent Inhibitors of Urease and Less Cytotoxic Agents: 3-({5-((2-Amino-1,3-thiazol-4-yl)methyl)-1,3,4-oxadiazol-2-yl}sulfanyl)-N-(un/substituted-phenyl)propanamides” (Iranian Journal of Pharmaceutical Research : IJPR, 2020)
Where two headings read alike, the source gives them in different places.

What was measured:
[1] = Hemolytic activity (cytotoxicity through hemolysis); format: cell-based; conditions: bovine, red blood cell (erythrocyte) suspension, pH 7.4, 20 µL compound solution (10 mg/mL) in 180 µL RBCs suspension, room temperature, PBS negative control, Triton positive control
Text: The erythrocytes separated diluted in phosphate buffer saline of pH 7.4 and a suspension was made.

urease = urease (Canavalia ensiformis, UniProt P07374); assay: Urease inhibition assay (customized Berthelot assay); format: biochemical; conditions: for inhibition at 500 µM: read-out: Urease Inhibition, Inhibition (%)
Sequence of urease (P07374 whole entry, looked up): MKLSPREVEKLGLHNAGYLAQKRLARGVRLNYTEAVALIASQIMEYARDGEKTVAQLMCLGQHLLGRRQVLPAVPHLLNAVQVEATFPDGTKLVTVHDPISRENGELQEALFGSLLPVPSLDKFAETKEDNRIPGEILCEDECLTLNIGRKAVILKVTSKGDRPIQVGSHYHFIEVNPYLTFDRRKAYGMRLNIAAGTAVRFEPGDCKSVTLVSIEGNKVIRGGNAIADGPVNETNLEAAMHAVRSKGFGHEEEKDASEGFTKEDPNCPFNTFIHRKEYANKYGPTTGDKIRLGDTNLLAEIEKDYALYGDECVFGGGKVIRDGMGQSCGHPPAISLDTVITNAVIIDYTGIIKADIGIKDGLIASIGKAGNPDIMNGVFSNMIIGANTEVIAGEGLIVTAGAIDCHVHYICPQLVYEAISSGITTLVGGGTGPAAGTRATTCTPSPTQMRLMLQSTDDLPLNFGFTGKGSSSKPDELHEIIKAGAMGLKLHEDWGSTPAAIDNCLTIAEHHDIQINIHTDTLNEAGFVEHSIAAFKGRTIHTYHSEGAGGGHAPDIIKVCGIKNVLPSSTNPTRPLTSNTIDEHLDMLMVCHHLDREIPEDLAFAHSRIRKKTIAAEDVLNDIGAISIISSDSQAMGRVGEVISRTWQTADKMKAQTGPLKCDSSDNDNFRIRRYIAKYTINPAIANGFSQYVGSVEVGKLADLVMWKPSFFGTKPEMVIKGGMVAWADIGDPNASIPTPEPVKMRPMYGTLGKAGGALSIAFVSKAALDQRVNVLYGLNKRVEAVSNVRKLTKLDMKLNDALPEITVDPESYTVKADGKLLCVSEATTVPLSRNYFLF
Description: This enzyme assay is the customized form of the commonly known Berthelot assay ([23], [24]). […] The contents were pre-incubated at 37 °C for 5 min. 40 µL of urea stock solution (20 mM) was added to each well with incubation for 10 min at 37 °C. It is followed by the addition of 115 µL phenol hypochlorite reagents (freshly prepared by mixing 45 µL phenol with 70 µL of alkali) per well. For color development, incubation was carried out for further 10 min at 37 °C. The absorbance was measured at 625 nm. The percentage enzyme inhibition and IC50 values were calculated using the following formula:
inhibition%=Control-test/Control×100
Where, Control is the total enzyme activity without inhibitor and Test is the activity in the presence of test compound. IC50 values were calculated using the EZ–Fit Enzyme kinetics software (Perrella Scientific Inc. Amherst, US).
Statistical analysis was performed by Microsoft Excel 2010 for all the thrice measured values and the results are presented as mean ± SEM.

**Q.** With `Cc1cc(C)cc(NC(=O)CCSc2nnc(Cc3csc(N)n3)o2)c1` [Compound 7i, 3-({5-[(2-Amino-1,3-thiazol-4-yl)methyl]-1,3,4-oxadiazol-2-yl}sulfanyl)-N-(3,5-dimethylphenyl)propanamide] as the molecule, how does the hemolysis at 30 min, 1 mg/mL [1] read?
**A.** 5.26%

**Q.** And the IC50 (urease)?
**A.** 3620 ± 10 nM

**Q.** And the inhibition at 500 µM (urease)?
**A.** 97.31 ± 0.08%

**Q.** Which results are given for `NC(N)=S` [Thiourea, reference compound]?
**A.** Urease Inhibition, Inhibition (%) (urease; at 0.5 mM, mean ± SEM, n = 3): Thiourea 98.12 ± 0.18%; IC50 (urease; mean ± SEM, n = 3, EZ-Fit Enzyme kinetics software, read-out: Urease Inhibition, IC50): 21100 nM

**Q.** Which hemolysis at 30 min, 1 mg/mL [1] does the source give for `Nc1nc(Cc2nnc(SCCC(=O)Nc3ccccc3)o2)cs1` [Compound 7a, 3-({5-[(2-Amino-1,3-thiazol-4-yl)methyl]-1,3,4-oxadiazol-2-yl}sulfanyl)-N-phenylpropanamide] here?
**A.** 11.5%

**Q.** And the IC50 (urease)?
**A.** 2450 ± 40 nM

**Q.** What about the inhibition at 500 µM (urease) of the same molecule?
**A.** 98.24 ± 0.08%

**Q.** And the melting point?
**A.** 190 to 191 °C

**Q.** With `CC(C)(C)CC(C)(C)c1ccc(OCCO)cc1` [Triton-X, reference compound] as the molecule, how does the hemolysis at 30 min, 1 mg/mL [1] read?
**A.** 89%

**Q.** Which hemolysis at 30 min, 1 mg/mL [1] does the source give for `Cc1cccc(NC(=O)CCSc2nnc(Cc3csc(N)n3)o2)c1` [Compound 7c, 3-({5-[(2-Amino-1,3-thiazol-4-yl)methyl]-1,3,4-oxadiazol-2-yl}sulfanyl)-N-(3-methylphenyl)propanamide] here?
**A.** 5.16%

**Q.** What about the IC50 (urease) of the same molecule?
**A.** 1320 ± 20 nM

**Q.** And the inhibition at 500 µM (urease)?
**A.** 98.52 ± 0.05%

**Q.** What does the source list for `CCc1ccccc1NC(=O)CCSc1nnc(Cc2csc(N)n2)o1` [Compound 7j, 3-({5-[(2-Amino-1,3-thiazol-4-yl)methyl]-1,3,4-oxadiazol-2-yl}sulfanyl)-N-(2-ethylphenyl)propanamide]?
**A.** hemolysis at 30 min, 1 mg/mL [1]: 6.63%; IC50 (urease): 2130 ± 10 nM; inhibition at 500 µM (urease): 98.12 ± 0.03%; melting point: 198 to 199 °C

**Q.** Which results are given for `Cc1cccc(C)c1NC(=O)CCSc1nnc(Cc2csc(N)n2)o1` [Compound 7g, 3-({5-[(2-Amino-1,3-thiazol-4-yl)methyl]-1,3,4-oxadiazol-2-yl}sulfanyl)-N-(2,6-dimethylphenyl)propanamide]?
**A.** hemolysis at 30 min, 1 mg/mL [1]: 7.37%; IC50 (urease): 2630 ± 30 nM; inhibition at 500 µM (urease): 98.52 ± 0.06%; melting point: 149 to 150 °C

**Q.** Which hemolysis at 30 min, 1 mg/mL [1] does the source give for `Cc1ccc(C)c(NC(=O)CCSc2nnc(Cc3csc(N)n3)o2)c1` [Compound 7f, 3-({5-[(2-Amino-1,3-thiazol-4-yl)methyl]-1,3,4-oxadiazol-2-yl}sulfanyl)-N-(2,5-dimethylphenyl)propanamide] here?
**A.** 6.42%

**Q.** What about the IC50 (urease) of the same molecule?
**A.** 5180 ± 60 nM

**Q.** And the inhibition at 500 µM (urease)?
**A.** 96.26 ± 0.03%

**Q.** Which results are given for `Cc1ccccc1NC(=O)CCSc1nnc(Cc2csc(N)n2)o1` [Compound 7b, 3-({5-[(2-Amino-1,3-thiazol-4-yl)methyl)-1,3,4-oxadiazol-2-yl}sulfanyl)-N-(2-methylphenyl)propanamide]?
**A.** hemolysis at 30 min, 1 mg/mL [1]: 7.05%; IC50 (urease): 2640 ± 30 nM; inhibition at 500 µM (urease): 96.42 ± 0.02%

**Q.** Which results are given for `CCOc1ccc(NC(=O)CCSc2nnc(Cc3csc(N)n3)o2)cc1` [Compound 7l, 3-({5-[(2-Amino-1,3-thiazol-4-yl)methyl]-1,3,4-oxadiazol-2-yl}sulfanyl)-N-(4-ethoxyphenyl)propanamide]?
**A.** hemolysis at 30 min, 1 mg/mL [1]: 8.11%; IC50 (urease): 2170 ± 20 nM; inhibition at 500 µM (urease): 97.25 ± 0.04%

**Q.** Which results are given for `Cc1ccc(NC(=O)CCSc2nnc(Cc3csc(N)n3)o2)cc1` [Compound 7d, 3-({5-[(2-Amino-1,3-thiazol-4-yl)methyl]-1,3,4-oxadiazol-2-yl}sulfanyl)-N-(4-methylphenyl)propanamide]?
**A.** hemolysis at 30 min, 1 mg/mL [1]: 7.16%; IC50 (urease): 1750 ± 10 nM; inhibition at 500 µM (urease): 98.13 ± 0.02%

**Q.** With `Cc1ccc(NC(=O)CCSc2nnc(Cc3csc(N)n3)o2)c(C)c1` [Compound 7e, 3-({5-[(2-Amino-1,3-thiazol-4-yl)methyl]-1,3,4-oxadiazol-2-yl}sulfanyl)-N-(2,4-dimethylphenyl)propanamide] as the molecule, how does the hemolysis at 30 min, 1 mg/mL [1] read?
**A.** 6.74%

**Q.** What about the IC50 (urease) of the same molecule?
**A.** 1240 ± 10 nM

**Q.** And the inhibition at 500 µM (urease)?
**A.** 98.19 ± 0.09%

**Q.** Which hemolysis at 30 min, 1 mg/mL [1] does the source give for `Cc1ccc(NC(=O)CCSc2nnc(Cc3csc(N)n3)o2)cc1C` [Compound 7h, 3-({5-[(2-Amino-1,3-thiazol-4-yl)methyl]-1,3,4-oxadiazol-2-yl}sulfanyl)-N-(3,4-dimethylphenyl)propanamide] here?
**A.** 5.79%

**Q.** What about the IC50 (urease) of the same molecule?
**A.** 2560 ± 20 nM

**Q.** What about the inhibition at 500 µM (urease) of the same molecule?
**A.** 97.28 ± 0.02%

**Q.** What about the melting point of the same molecule?
**A.** 177 to 178 °C

**Q.** Which hemolysis at 30 min, 1 mg/mL [1] does the source give for `CCc1ccc(NC(=O)CCSc2nnc(Cc3csc(N)n3)o2)cc1` [Compound 7k, 3-({5-[(2-amino-1,3-thiazol-4-yl)methyl]-1,3,4-oxadiazol-2-yl}sulfanyl)-N-(4-ethylphenyl)propanamide] here?
**A.** 7.16%

**Q.** And the IC50 (urease)?
**A.** 2850 ± 50 nM

**Q.** What about the inhibition at 500 µM (urease) of the same molecule?
**A.** 97.43 ± 0.07%
